According to ChEMBL document CHEMBL1201862, “PubChem BioAssay data set” (2004):
Activity calls are given as the source filed them.

Assays:
[1] = target: T1, Dual specificity protein phosphatase 6 (Rattus norvegicus, UniProt Q64346); assay type: functional
T1 sequence (Q64346 whole entry): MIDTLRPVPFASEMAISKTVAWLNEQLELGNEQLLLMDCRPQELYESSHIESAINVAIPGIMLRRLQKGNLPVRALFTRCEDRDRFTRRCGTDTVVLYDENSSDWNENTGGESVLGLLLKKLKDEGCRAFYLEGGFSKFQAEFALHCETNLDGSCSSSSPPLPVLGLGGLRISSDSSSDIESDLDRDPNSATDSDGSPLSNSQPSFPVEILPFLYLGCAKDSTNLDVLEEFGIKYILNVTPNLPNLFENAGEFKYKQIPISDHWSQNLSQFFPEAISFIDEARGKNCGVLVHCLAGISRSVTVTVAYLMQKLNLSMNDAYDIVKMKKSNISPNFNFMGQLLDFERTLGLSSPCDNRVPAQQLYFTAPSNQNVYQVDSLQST

[2] = target: Glyceraldehyde-3-phosphate dehydrogenase (Homo sapiens, UniProt P04406)
Glyceraldehyde-3-phosphate dehydrogenase, sequence (P04406 whole entry): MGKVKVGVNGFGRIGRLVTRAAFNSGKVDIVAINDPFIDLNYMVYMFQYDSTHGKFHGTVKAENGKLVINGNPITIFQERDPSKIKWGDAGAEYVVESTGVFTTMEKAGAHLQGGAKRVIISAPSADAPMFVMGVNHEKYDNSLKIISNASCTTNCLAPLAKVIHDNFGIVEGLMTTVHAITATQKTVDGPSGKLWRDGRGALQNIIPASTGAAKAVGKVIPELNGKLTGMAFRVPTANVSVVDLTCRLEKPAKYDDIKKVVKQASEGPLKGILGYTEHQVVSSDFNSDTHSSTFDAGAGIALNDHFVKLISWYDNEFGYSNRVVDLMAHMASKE

[3] = target: T2, Tyrosine-protein phosphatase non-receptor type 7 (Homo sapiens, UniProt P35236); assay type: functional
T2 sequence (P35236 whole entry): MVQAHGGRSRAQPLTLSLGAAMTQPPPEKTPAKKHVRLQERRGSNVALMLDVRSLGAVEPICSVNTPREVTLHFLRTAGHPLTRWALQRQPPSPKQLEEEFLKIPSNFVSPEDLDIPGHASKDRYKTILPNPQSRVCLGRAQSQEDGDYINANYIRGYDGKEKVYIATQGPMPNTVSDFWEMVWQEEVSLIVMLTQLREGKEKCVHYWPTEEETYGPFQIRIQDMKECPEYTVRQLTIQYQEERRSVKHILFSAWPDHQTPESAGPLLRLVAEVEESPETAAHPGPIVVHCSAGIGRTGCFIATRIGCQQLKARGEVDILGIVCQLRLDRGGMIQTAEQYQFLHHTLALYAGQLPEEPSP

[4] = target: T1, Dual specificity protein phosphatase 6
[5] = system: Streptococcus; experiment: Group A Streptococcus viability loss, dose response, counter-screen for streptokinase expression inhibitor project, luminescence, BacTiterGlo (AID 1915); assay type: functional, organism-based;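 note: potency for reduction of bacterial viability or growth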
[6] = cytotoxicity toward NIH3T3 fibroblasts, dose response, counter-screen, cell-based, ATP luminescence, mouse fibroblasts (AID 2010); assay type: functional;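 note: cells exposed to compound for about 90 hours before reading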
[7] = system: Streptococcus; experiment: Luminescence Microorganism-Based Dose Response Follow up to Identify Compounds Cytotoxic to Streptococcus. [Related pubchem assays: 1677 (Project Summary), 1915, 1914, 1902 (Retest at Dose), 1900 (Counter Screen), 1662 (Primary HTS)]; assay type: functional, organism-based
[8] = inhibitors of intracellular T. cruzi replication, confirmation, NIH3T3 host cells, beta-gal luminescence (AID 2044); assay type: functional, cell-based;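 note: intracellular parasites grown in NIH/3T3 mouse fibroblasts as host cells; luminescent beta-galactosidase reporter signal from transgenic T. cruzi replicating inside host cells; inhibitors lower the luminescence signal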
[9] = microbe, parasite or virus in culture; assay type: functional; settings: Mycobacterium tuberculosis
[10] = target: T3, Streptokinase A (Streptococcus pyogenes serotype M1, UniProt P10520); experiment: S. pyogenes streptokinase expression inhibitors, potency, dose response, plasminogen activation absorbance, OD405 (AID 1914); assay type: functional, Streptococcus pyogenes M1 GAS;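 note: secreted streptokinase activity via plasminogen activation per viability signal from cell pellet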
T3 sequence (P10520 whole entry): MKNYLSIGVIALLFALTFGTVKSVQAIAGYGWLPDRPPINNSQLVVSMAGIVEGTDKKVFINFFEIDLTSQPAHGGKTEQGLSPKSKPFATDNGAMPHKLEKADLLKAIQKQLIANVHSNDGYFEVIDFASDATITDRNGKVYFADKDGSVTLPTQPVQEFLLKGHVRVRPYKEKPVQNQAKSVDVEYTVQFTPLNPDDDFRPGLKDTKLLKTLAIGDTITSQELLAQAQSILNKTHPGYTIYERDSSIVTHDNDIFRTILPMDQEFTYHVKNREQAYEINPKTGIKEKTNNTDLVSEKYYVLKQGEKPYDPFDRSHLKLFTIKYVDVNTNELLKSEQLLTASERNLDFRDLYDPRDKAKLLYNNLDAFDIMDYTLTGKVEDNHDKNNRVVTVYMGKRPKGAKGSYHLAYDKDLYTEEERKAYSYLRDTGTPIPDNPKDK

[11] = system: Streptococcus sp. 'group A'; experiment: growth inhibition of control SK(-) GAS strain, dose response, counter-screen for streptokinase expression inhibitor project, luminescence, kanamycin, BacTiterGlo, confirmation (AID 1900); assay type: functional, organism-based
[12] = Luminescence Cell-Based Dose Confirmation HTS to Identify Inhibitors of Polyadenylation.; assay type: functional
[13] = polyadenylation inhibitors in yeast reporter, dose response, luminescence, S. cerevisiae SKY197-pL101 (AID 2525); assay type: functional, cell-based
[14] = system: Vero; experiment: cells; assay type: functional; settings: Chlorocebus sabaeus
[15] = system: HEK293; experiment: Fluorescence-based counterscreen for potentiators or agonists of NPY-Y1: cell-based high-throughput dose response assay for inhibitors of cyclic nucleotide gated ion channel (CNGC) activity. In this assay, the parental HEK293 cell line transfected with a cyclic-nucleotide gated ion channel (CNGC)-based cAMP sensor is used to measure inhibition of isoproterenol-induced CNGC …; assay type: functional; settings: Homo sapiens
[16] = target: Beta-galactosidase (Escherichia coli, UniProt Q8VNN2); experiment: Dose response counterscreen for EBI2 assay utilizing the enzyme, b-galactosidase.; assay type: functional
Beta-galactosidase, sequence (Q8VNN2 whole entry): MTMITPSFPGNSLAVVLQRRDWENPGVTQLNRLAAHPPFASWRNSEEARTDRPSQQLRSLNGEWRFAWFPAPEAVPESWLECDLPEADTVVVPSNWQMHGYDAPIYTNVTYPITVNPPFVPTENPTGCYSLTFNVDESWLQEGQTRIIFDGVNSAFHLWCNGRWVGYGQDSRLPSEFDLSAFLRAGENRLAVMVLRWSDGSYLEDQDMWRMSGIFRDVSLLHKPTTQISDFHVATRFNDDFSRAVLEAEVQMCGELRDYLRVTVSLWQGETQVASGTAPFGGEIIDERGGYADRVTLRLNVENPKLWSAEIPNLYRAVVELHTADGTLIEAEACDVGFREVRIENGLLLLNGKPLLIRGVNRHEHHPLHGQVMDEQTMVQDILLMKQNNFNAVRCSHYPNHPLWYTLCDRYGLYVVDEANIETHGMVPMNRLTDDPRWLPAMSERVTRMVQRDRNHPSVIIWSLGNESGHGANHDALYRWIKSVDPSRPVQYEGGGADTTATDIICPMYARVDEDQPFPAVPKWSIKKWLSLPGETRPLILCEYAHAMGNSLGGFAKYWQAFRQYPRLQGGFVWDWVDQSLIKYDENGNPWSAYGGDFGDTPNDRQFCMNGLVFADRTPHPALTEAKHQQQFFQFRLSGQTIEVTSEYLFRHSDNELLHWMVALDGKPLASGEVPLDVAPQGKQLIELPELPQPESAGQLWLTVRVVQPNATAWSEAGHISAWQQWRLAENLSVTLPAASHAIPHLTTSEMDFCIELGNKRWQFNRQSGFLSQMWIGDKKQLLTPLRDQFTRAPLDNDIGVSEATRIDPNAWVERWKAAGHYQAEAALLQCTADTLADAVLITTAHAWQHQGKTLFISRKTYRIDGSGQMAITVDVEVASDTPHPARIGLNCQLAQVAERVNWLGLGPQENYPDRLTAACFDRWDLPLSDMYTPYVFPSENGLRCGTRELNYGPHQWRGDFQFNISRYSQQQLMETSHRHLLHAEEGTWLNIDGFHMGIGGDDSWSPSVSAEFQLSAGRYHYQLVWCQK

[17] = target: T4, Neuropeptide Y receptor type 1 (Homo sapiens, UniProt P25929); experiment: Fluorescence-based dose response cell-based high-throughput screening assay for agonists of NPY-Y1. [Related pubchem assays: 1697 (Screening assay (NPY-Y1 agonists).), 1359 (Screening assay (NPY-Y2 potentiators or agonists).), 1304 (Screening assay (NPY-Y1 potentiators or agonists).), 1704 (Screening assay (CNGC inhibitors).), 1791 (Summary AID.)]; assay type: functional
T4 sequence (P25929 whole entry): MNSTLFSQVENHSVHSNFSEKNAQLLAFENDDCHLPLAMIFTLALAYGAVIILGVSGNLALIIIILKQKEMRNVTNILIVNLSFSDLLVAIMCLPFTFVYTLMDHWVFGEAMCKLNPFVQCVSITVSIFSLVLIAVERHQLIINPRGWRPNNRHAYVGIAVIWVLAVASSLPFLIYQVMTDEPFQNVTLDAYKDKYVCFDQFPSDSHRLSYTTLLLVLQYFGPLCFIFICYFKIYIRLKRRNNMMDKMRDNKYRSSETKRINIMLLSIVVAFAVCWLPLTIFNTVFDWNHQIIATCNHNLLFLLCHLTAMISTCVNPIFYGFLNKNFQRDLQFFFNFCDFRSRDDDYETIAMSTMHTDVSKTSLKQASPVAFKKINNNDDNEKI

[18] = target: T5, Neuropeptide Y receptor type 2 (Homo sapiens, UniProt P49146); experiment: Fluorescence-based counterscreen for agonists of NPY-Y1: cell-based high-throughput dose response assay for agonists of NPY-Y2.; assay type: functional
T5 sequence (P49146 whole entry): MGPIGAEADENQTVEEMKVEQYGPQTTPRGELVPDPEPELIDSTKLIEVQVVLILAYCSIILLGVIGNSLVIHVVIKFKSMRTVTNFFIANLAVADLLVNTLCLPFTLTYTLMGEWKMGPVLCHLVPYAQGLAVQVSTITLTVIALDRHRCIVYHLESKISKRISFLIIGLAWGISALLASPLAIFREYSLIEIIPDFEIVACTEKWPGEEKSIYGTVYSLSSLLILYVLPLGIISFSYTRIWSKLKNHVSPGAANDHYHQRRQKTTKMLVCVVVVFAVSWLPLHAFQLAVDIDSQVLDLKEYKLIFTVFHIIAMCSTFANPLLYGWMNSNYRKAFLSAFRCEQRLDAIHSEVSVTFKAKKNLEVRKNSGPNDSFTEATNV

[19] = Luminescence Cell-Based Dose Retest to Confirm Inhibitors of Cancer Stem Cells. [Related pubchem assays (depositor defined):AID2717, AID2721]; assay type: functional; settings: Homo sapiens
[20] = system: INS1; experiment: beta cell apoptosis inhibitors, cytokine rescue, dose response, luminescence, retest (AID 449756); assay type: functional, cell-based; settings: Rattus norvegicus;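 note: cell death triggered by IL-1 beta plus TNF-alpha plus IFN-gamma mixture; protective hits raise ATP signal compared with cytokine alone wells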
[21] = target: Lysosomal acid glucosylceramidase (Homo sapiens, UniProt P04062); experiment: Dose response cell-based high throughput screening assay to identify enhancers of beta-glucosidase activity. [Related pubchem assays: 784 ]; assay type: functional
Lysosomal acid glucosylceramidase, sequence (P04062 whole entry): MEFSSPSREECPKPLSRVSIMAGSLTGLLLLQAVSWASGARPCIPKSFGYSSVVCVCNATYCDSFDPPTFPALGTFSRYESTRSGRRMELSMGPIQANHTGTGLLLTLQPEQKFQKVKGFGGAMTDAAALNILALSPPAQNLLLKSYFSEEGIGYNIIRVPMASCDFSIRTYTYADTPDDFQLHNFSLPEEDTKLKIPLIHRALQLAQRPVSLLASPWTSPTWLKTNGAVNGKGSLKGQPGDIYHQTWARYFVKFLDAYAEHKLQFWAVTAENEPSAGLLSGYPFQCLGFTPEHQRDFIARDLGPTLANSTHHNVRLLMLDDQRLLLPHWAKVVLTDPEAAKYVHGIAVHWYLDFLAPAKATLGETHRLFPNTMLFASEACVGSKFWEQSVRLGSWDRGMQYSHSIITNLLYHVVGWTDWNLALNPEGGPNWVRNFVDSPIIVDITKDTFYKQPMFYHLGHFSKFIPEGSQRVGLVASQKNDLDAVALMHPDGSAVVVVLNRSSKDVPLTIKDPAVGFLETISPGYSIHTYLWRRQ

[22] = target: Induced myeloid leukemia cell differentiation protein Mcl-1 (Homo sapiens, UniProt Q07820); assay type: functional
Induced myeloid leukemia cell differentiation protein Mcl-1, sequence (Q07820 whole entry): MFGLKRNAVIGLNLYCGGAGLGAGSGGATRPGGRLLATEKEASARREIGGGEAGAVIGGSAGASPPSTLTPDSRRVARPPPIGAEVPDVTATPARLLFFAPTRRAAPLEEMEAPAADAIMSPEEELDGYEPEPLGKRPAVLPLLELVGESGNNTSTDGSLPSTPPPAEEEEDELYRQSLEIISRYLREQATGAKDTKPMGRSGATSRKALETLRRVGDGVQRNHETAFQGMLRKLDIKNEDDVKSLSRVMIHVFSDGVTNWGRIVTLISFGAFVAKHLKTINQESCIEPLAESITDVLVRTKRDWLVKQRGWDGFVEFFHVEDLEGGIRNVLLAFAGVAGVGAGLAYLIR

[23] = target: T6, Coagulation factor XII (Homo sapiens, UniProt P00748); assay type: functional;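 note: activated factor XIIa alpha cleaving a fluorogenic AMC peptide substrate; inhibitor potency from loss of enzyme activity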
T6 sequence (P00748 whole entry): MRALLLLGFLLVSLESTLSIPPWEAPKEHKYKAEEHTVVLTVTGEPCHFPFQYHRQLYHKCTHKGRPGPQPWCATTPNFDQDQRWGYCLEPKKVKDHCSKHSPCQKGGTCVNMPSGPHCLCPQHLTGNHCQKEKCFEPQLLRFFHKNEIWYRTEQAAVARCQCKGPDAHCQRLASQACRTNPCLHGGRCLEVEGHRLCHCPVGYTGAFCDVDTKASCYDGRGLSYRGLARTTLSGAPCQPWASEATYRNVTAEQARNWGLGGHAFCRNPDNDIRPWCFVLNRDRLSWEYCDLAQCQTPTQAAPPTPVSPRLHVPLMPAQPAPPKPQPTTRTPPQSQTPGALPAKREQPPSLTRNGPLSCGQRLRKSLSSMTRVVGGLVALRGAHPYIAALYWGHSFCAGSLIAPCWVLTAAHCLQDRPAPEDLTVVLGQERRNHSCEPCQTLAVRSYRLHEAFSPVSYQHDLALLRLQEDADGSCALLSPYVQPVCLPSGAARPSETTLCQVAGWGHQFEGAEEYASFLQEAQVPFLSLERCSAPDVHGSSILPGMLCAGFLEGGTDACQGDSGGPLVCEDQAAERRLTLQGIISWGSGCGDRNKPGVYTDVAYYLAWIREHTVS

[24] = target: Bcl-2-like protein 10 (Homo sapiens, UniProt Q9HD36); experiment: displacers of TR3 peptide from Bcl-B, primary screen, selectivity assay for Bfl-1 inhibitor project, biochemical, fluorescence polarization, FITC-TR3 peptide (AID 748);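 note: fluorescence polarization from a fluorescein-labelled TR3 peptide binding purified Bcl-B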
Bcl-2-like protein 10, sequence (Q9HD36 whole entry, the tested form may be a part): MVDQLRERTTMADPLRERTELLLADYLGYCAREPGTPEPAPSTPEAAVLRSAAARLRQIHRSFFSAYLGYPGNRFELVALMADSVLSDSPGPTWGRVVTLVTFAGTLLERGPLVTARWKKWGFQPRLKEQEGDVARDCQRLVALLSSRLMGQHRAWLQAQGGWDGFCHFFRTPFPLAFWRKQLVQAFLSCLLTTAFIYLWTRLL

[25] = target: T7, Carboxy-terminal domain RNA polymerase II polypeptide A small phosphatase 1 (Homo sapiens, UniProt Q9GZU7); experiment: inhibitors of CTDSP1, concentration-response testing, biochemical assay, absorbance-based, actives from ultra-high-throughput screening (AID 540297); assay type: functional
T7 sequence (Q9GZU7 whole entry): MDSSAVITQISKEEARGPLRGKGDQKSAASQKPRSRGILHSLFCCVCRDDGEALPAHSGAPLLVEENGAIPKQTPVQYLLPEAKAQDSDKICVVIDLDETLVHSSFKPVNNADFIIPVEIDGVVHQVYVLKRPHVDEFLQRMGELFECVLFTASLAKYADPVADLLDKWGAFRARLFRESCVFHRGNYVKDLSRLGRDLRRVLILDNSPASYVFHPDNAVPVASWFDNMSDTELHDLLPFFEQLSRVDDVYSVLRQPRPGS

[26] = target: Melanin-concentrating hormone receptor 1 (Homo sapiens, UniProt Q99705); experiment: Late-stage fluorescence-based counterscreen for antagonists of the G-protein coupled receptor 7 (GPR7): cell-based dose response assay to identify antagonists of the melanin-concentrating hormone receptor 1 (MCHR1). [Related pubchem assays (depositor defined):AID1861, AID1880, AID1952, AID2148, AID2251, AID2257, AID485339]; assay type: functional;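 note: stimulated with 30 nM MCH peptide agonist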
Melanin-concentrating hormone receptor 1, sequence (Q99705 whole entry): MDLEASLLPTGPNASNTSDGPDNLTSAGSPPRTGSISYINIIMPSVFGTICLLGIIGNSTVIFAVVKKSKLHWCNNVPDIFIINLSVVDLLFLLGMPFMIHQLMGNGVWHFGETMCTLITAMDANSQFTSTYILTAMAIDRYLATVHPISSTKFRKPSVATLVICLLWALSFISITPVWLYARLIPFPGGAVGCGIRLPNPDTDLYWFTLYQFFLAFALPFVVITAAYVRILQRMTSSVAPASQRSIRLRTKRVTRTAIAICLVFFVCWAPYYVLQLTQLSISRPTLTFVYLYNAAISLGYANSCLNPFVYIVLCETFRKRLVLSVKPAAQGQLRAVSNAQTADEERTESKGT

[27] = target: Scavenger receptor class B member 1 (Mus musculus, UniProt Q61009); experiment: inhibitors of SR-BI mediated HDL lipid uptake, dose response, ldlA[mSR-BI] cells, fluorescence, cherry pick (AID 493194); assay type: functional, cell-based;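 note: cellular uptake of fluorescent DiI-labeled HDL measured as cell fluorescence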
Scavenger receptor class B member 1, sequence (Q61009 whole entry): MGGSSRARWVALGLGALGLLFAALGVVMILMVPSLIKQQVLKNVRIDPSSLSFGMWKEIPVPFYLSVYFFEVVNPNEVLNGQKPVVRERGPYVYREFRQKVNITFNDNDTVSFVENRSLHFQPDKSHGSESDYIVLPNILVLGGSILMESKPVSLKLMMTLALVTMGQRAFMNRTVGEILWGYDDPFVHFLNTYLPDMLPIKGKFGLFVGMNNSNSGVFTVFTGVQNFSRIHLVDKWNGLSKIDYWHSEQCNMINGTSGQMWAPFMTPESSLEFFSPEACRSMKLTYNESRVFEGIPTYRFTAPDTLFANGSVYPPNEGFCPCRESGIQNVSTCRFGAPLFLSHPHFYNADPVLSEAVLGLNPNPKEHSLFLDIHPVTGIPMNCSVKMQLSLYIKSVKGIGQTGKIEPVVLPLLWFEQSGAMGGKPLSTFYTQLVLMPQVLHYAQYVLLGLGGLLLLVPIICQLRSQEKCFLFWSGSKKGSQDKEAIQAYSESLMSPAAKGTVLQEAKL

[28] = system: Trypanosoma cruzi; experiment: growth inhibition of intracellular Trypanosoma cruzi, dose response, cell-based, plate reader, dry powder, set 3 (AID 493197); assay type: functional
[29] = target: T8, Eukaryotic translation initiation factor 2-alpha kinase 3 (Homo sapiens, UniProt Q9NZJ5); experiment: Dose response cell-based high-throughput screening assay to measure PERK inhibition. [Related pubchem assays: 1416 ]; assay type: functional
T8 sequence (Q9NZJ5 whole entry): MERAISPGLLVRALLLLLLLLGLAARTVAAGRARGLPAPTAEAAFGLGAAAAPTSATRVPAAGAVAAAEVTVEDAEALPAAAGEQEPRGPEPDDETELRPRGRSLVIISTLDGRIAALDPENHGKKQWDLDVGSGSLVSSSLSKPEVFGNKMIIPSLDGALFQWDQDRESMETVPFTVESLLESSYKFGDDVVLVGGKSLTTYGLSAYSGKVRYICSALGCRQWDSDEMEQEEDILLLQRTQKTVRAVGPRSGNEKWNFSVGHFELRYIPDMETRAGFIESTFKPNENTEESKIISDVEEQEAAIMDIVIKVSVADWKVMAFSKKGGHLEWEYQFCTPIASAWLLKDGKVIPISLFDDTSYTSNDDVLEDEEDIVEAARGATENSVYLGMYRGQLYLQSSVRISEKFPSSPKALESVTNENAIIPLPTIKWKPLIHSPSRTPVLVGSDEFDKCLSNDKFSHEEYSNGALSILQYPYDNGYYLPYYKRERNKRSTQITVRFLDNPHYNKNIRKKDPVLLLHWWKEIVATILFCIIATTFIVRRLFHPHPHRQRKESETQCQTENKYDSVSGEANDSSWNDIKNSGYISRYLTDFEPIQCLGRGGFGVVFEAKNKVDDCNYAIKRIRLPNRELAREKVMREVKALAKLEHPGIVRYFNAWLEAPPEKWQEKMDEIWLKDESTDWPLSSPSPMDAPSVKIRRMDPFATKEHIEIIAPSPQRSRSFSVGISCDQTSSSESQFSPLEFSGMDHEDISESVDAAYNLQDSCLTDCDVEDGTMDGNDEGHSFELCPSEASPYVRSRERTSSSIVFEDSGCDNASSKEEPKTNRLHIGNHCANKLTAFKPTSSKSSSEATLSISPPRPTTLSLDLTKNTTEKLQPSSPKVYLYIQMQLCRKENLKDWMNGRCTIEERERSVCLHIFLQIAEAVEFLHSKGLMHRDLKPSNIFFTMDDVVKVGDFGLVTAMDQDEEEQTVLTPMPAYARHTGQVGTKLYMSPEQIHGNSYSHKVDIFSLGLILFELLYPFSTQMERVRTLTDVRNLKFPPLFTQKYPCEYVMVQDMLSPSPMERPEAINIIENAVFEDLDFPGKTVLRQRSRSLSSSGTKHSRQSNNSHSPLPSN

[30] = target: T8, Eukaryotic translation initiation factor 2-alpha kinase 3; experiment: Counterscreen assay for PERK inhibitors: Dose response cell-based high throughput screening assay to measure inhibition of PERK at 6 hours. [Related pubchem assays: 1522, 1416 ]; assay type: functional
[31] = target: Cytochrome P450 2D6 (Homo sapiens, UniProt P10635); experiment: qHTS Assay for Inhibitors and Substrates of Cytochrome P450 2D6. [Related pubchem assays: 410 ]; assay type: ADME; settings: read-out: Potency
Cytochrome P450 2D6, sequence (P10635 whole entry): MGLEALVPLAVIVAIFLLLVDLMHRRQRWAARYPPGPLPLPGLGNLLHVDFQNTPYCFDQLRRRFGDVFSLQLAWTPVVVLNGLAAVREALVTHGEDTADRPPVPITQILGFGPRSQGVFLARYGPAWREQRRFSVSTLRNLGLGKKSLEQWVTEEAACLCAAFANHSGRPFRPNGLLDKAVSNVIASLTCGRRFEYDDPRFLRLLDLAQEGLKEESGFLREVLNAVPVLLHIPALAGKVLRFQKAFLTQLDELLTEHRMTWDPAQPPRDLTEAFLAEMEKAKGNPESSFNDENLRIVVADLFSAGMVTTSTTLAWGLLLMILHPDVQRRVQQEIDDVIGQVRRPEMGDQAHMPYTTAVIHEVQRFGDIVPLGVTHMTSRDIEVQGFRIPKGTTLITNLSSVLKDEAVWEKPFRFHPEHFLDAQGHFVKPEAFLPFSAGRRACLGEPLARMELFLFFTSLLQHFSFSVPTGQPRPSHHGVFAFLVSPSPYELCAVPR

## Cc1ccc(CC(=O)Nc2cc(C)on2)cc1
[1]
  IC50: > 100 µM (inactive)
[2]
  IC50: 93.8 µM (active)
[3]
  IC50: > 100 µM (not active)
[4]
  IC50: > 100 µM (inactive)

## Cc1cc(C)c2nc(-c3ccncc3)cc(C(=O)N3CCN(Cc4ccccc4Cl)CC3)c2c1
[5]
  EC50: > 150 µM (not active)
[6]
  EC50: > 60 µM (not active)
[7]
  EC50: 9.94 µM (active)
[8]
  EC50: 2.35 µM (active)
[9]
  CC50: > 40 µM (active)
[10]
  EC50: 10.3 µM (active)
[11]
  EC50: 3.71 µM (active)

## CC(=O)c1ccc(Sc2ccccc2)c([N+](=O)[O-])c1
[12]
  EC50: 11.4 µM (active)
[13]
  EC50: 2.88 µM (active)

## O=C(c1cc(-c2cccc(O)c2)on1)N1CCN(C(c2ccccc2)c2ccccc2)CC1
[14]
  CC50: 15.4 µM (active)
[15]
  IC50: > 35.4 µM (not active)
[16]
  IC50: 151 µM (inactive)
[17]
  EC50: > 35.4 µM (not active)
[18]
  EC50: > 35.4 µM (not active)
[19]
  AC50: 1.58 µM (active)
[20]
  AC50: 9.7 µM (active)

## CC(CS(=O)(=O)c1cccc2cccnc12)N1CCCCC1 (stereo unspecified)
[21]
  EC50: > 50 µM (not active)

## O=C(NCc1ccco1)c1c2c(nc3ccccc13)CCC2
[22]
  IC50: 4.33 µM (active)
[23]
  IC50: > 50 µM (inactive)
[24]
  IC50: 16.4 µM (active)
[25]
  IC50: 5.65 µM (active)

## COc1ccc(Oc2c(C)cnn(-c3ccc(C(C)C)cc3)c2=O)cc1
[26]
  IC50: 9.8 µM (active)

## CCOC(=O)N1CCN(C(=O)C2CCN(C(=O)Nc3ccccc3)CC2)CC1
[27]
  AC50: 136 µM (active)

## COc1ccc(C(C)NC(=O)C2CCN(CCCc3ccccc3)CC2)cc1OC (stereo unspecified)
[28]
  AC50: 66.3 µM (active)

## O=C(CCc1ccccc1)NCC(=O)N/N=C/c1ccc(O)cc1O
[29]
  EC50: > 55.7 µM (not active)
[30]
  EC50: > 55.7 µM (not active)

## COc1ccc([C@@H]2CC(=O)c3c(O)cc(O)cc3O2)cc1O [HESPERETIN]
[31]
  AC50: 39.8 µM (inconclusive)
